Assays:
HCT116 cell lines = tested on: HCT116 cell lines; parameters: method as in PMID 21617858; settings: read-out: IC50, growth of HCT116 cell lines; cited from earlier work
HCT116 cells = experiment: High-throughput resazurin (Alamar blue) cytotoxicity / antiproliferative assay on tumor HCT116 cells; type: cell-based, human; settings: for effect on proliferation of HCT116 cells: dose-response curves (Figure S4)
Procedure: (§1) A colon adenocarcinoma (HCT116) and normal human lung fibroblast (MRC-5) cell lines were purchased from the American Type Culture Collection (ATCC, Manassas, VA). HCT116 cells were maintained in McCoy's 5a Modified Medium supplemented with 10% FBS, 100 units/ml penicillin, and 100 µg/ml streptomycin at 37°C in a humidified 5% CO2 incubator. Subculturing was done using 1∶5 ratio twice a week. MRC-5 cells were maintained in DMEM supplemented with 10% FBS, 100 units/ml penicillin, and 100 µg/ml streptomycin at 37°C in a humidified 5% CO2 incubator. Subculturing was done using 1∶3 ratio twice a week. A cell bank was established for the cell lines used during the differential toxicity screening campaign.
The high-throughput in vitro assay for measuring toxicity and antiproliferative effects of small molecules was implemented as described earlier. Cell lines were grown in culture flasks to 90% confluences, then harvested in counted cell density and seeded into 384-well microtiter plates. Test compounds were then added in various concentrations (in 2% DMSO final concentration) and incubated with the cells in CO2 incubators at 37°C for 48 h. […] During this period, FBS content of the medium was decreased to avoid the masking effect of FBS on toxicity. Detection of viability is based on the reduction of resazurin (Alamar blue) by living cells, resulting in an increased fluorescent signal. For the transformation of the assay into a high-throughput format, a Beckman Biomek liquid handling system and a Wallac Victor plate reader were used. Protocols needed for handling the 384-well plates were established for both single-concentration screening and dose-response curve determination. A plate map was used for the validation of the assay on 384-well plates, which is suitable for the determination of dose-response curves for 16 compounds at the same time using 6 concentrations in triplicate. This experiment was run in parallel on 5 plates and repeated three times on different days. From the dose-response curves, IC50 values were determined and analyzed. […] Based on the established assay protocol, single-point screenings were done at 50 µM compound concentration in duplicate. Likewise, IC50 values were obtained from the toxicity dose-response curves from six compound concentrations in duplicate and calculated with Microcal Origin 5.0.

colon HCT116 cell lines = tested on: colon HCT116 cell lines; parameters: method as in PMID 19933261; settings: cited from earlier work
[1] = target: amine oxidase flavin-containing B enzyme (MAO-B); parameters: method as in PMID 19933261; settings: reported in PubChem; cited from earlier work
MRC-5 cells = experiment: High-throughput resazurin (Alamar blue) cytotoxicity / antiproliferative assay on normal MRC-5 cells; type: cell-based, human; settings: dose-response curves (Figure S4)
Procedure: as §1, with “A cell bank was established for the cell lines used during the differential toxicity screening campaign.” left out
The high-throughput in vitro assay for measuring toxicity and antiproliferative effects of small molecules was implemented as described earlier. Cell lines were grown in culture flasks to 90% confluences, then harvested in counted cell density and seeded into 384-well microtiter plates. […] For the transformation of the assay into a high-throughput format, a Beckman Biomek liquid handling system and a Wallac Victor plate reader were used. […] From the dose-response curves, IC50 values were determined and analyzed. To test the reproducibility and robustness of the assay for high-throughput screening, Z′ factors (∼0.72) and S/B ratios (∼10) were determined and the respective plate-to-plate and day-to-day coefficients of variation found to be 5.0%, 2.7%, 1.7% and 5.6%. […]

HCT116 cell = tested on: HCT116 cell; parameters: method as in PMID 19139018; settings: cited from earlier work

For `CN(C)C/C=C/C(=O)Nc1cc2c(Nc3ccc(F)c(Cl)c3)ncnc2cc1O[C@H]1CCOC1` [afatinib], the IC50 (HCT116 cell lines) is listed as 1620 nM.
For `O=C1c2ccccc2-c2nc(-c3cccc([N+](=O)[O-])c3)nnc21` [NSC680350], the “pGI50 obtained in this work on HCT116 cell lines” value (HCT116 cells) is listed as 5.19, the GI50 (HCT116 cells; dose-response curve, Figure S5, read-out: GI50 on HCT116 cell lines) is listed as 6400 nM and the “pGI50 for colon HCT116 cell lines reported in PubChem” value (colon HCT116 cell lines) is listed as 4.64. The IC50 [1] was 80 nM.
In the case of `C=CCNC1=C2C[C@@H](C)C[C@H](OC)[C@H](O)[C@@H](C)/C=C(\C)[C@H](OC(N)=O)[C@@H](OC)/C=C\C=C(/C)C(=O)NC(=CC1=O)C2=O` [17AAG, 17-(allylamino)-17-demethoxygeldanamycin], the “effect on MRC-5 cells” value (MRC-5 cells) is reported as “little or no effect”, the IC50 (HCT116 cells; 48 h incubation, dose-response, six concentrations in duplicate) is reported as 200 nM and the “fold selectivity relative to the antiproliferative effect on MRC-5 cells” value (HCT116 cells; IC50(MRC-5)/IC50(HCT116)) is reported as 93 fold. For the same compound, the “effect on proliferation of HCT116 cells” value (HCT116 cells) was “inhibited the proliferation of HCT116 cells in a dose dependent manner”.
In the case of `O=C(CCCCCCC(=O)Nc1ccccc1)NO` [SAHA, suberoylanilide hydroxamic acid], the “effect on MRC-5 cells” value (MRC-5 cells) is reported as “little or no effect” and the “effect on proliferation of HCT116 cells” value (HCT116 cells) is reported as “inhibited the proliferation of HCT116 cells in a dose dependent manner”.
In the case of `O=C(c1ccc(OCCN2CCCCC2)cc1)c1c(-c2ccc(O)cc2)sc2cc(O)ccc12` [raloxifene], the “inhibition of HCT116 cell growth” value (HCT116 cell) is listed as “inhibit HCT116 cell growth in a dose-dependent manner”.

From publication PMC3338416, “A Chemocentric Approach to the Identification of Cancer Targets” (PLoS ONE, 2012)
